Assay results reported in patent publication US20250205242A1, “CDK7 INHIBITORS FOR ANTIVIRAL TREATMENT” (QURIENT CO., LTD., priority 2022, published 2025).

Experiments:
[1] = system: HCMV strain AD169-GFP; assay: HCMV-GFP-based antiviral assay in HFF; assay type: cell-based, human cytomegalovirus
[2] = system: ganciclovir (GCV)-resistant HCMV strain ADP169-GFP314; assay: HCMV-GFP-based antiviral assay, ganciclovir-resistant strain; assay type: cell-based, human cytomegalovirus
Description: A series of laboratory variants of AD169-GFP virus that are resistant to GCV was generated. HFF were infected in 12-well plates at a multiplicity of infection (MOI) of 0.002 and incubated with […] Ganciclovir. GFP expression in infected cells was monitored microscopically, and the supernatants from the positive wells were transferred to fresh cells weekly. Thereby Ganciclovir concentrations were increased stepwise (a […] increase at each step) up to the point where total virus replication became critical and resistant virus was grown in individual wells. Using supernatants from these wells, two rounds of plaque purifications were performed in HFF. Finally, Ganciclovir-resistant viral clones (AD169-GFP314) which were able to replicate in the presence of […] GCV were isolated.
HFF were cultured to 90% confluency in 12-well plates and used for infection with AD169-GFP HCMV-virus at a tissue culture infective dose of 0.5 (GFP-TCID50 0.5, referring to an MOI of 0.002 as determined by plaque assay titration). Virus inoculation was performed for 90 min at 37° C. with occasional shaking before virus was removed and the cell layers were rinsed with phosphate-buffered saline (PBS). Then infected cell layers were incubated with 2.5 ml of MEM containing 5% (vol/vol) fetal calf serum with or without a dilution of one of the respective test compounds. Infected cells were incubated at 37° C. under a 5% CO2 atmosphere for 7 days. For lysis, […] of lysis buffer (25 mM Tris [pH 7.8], 2 mM dithiothreitol [DTT], 2 mM trans-1,2-diaminocyclohexane-N,N,N9,N9-tetraacetic acid, 1% Triton X-100, 10% glycerol) was added to each well and incubated for 10 min at 37° C., followed by a 30-min incubation at room temperature on a shaker. Lysates were centrifuged for 5 min at 15,000 rpm in an Eppendorf centrifuge to remove cell debris. […] The […] of compounds against virus replication was determined by EC50 (50% effective concentration).

[3] = system: HPV11; assay: HPV genome replicon assay (NanoLuc) in C-33 A cells, HPV11; assay type: cell-based, Human Papilloma Virus; settings: reference compound; value within the prescribed range
Excerpt: C-33 A, […] were obtained from ATCC and maintained in standard growth medium of MEM with Earl's salts supplemented with 10% FBS (Hyclone, Inc. Logan UT), L-glutamine, penicillin, and gentamycin.
HPV genome replicon assay was developed and expresses the essential E1 and E2 proteins from the native promoter. The E2 origin binding protein interacts with the virus origin of replication and recruits the E1 replicative helicase which unwinds the DNA and helps to recruit the cellular DNA replication machinery (including DNA polymerases, type I and type II topoisomerases, DNA ligase, single-stranded DNA binding proteins, proliferating cell nuclear antigen). The replication complex then drives the amplification of the replicon which can be assessed by the expression of a destabilized NanoLuc reporter gene carried on the replicon. In the HPV11 assay, the replicon (pMP619) is transfected into C-33 A cells grown as monolayers in 384-well plates. At 48 h post transfection, the enzymatic activity of the destabilized NanoLuc reporter is assessed with NanoGlo reagent. […] Analysis of HPV genome replication in specific types of HPV, such as HPV6, HPV11, or HPV31 is performed with plasmid systems that utilize each HPV type.

Row | Compound | antiviral effectiveness against non-resistant viruses [1] | antiviral effectiveness against viruses resistant to nucleobase analogue drugs [2] | EC50 [3] [µM]
1 | C=C(F)C(=O)Nc1ccc2c(-c3ccccc3CNc3nc(N[C@@H]4CCC(C)(C)NC4)nc4c(C(C)C)cnn34)nccc2c1 [Compound 174] | highly effective | highly effective | –
2 | C=C(F)C(=O)Nc1ccc2c(-c3ccccc3CNc3nc(NC4CCC(C)(C)NC4)nc4c(C(C)C)cnn34)nccc2c1 (stereo not shown) [Compound 175] | highly effective | highly effective | –
3 | C=C(F)C(=O)Nc1ccc2c(-c3ccccc3CNc3nc(OC4CCC(C)(C)NC4)nc4c(C(C)C)cnn34)nccc2c1 (stereo not shown) [Compound 177] | highly effective | highly effective | –
4 | Nc1nc2c(ncn2CCOCP(=O)(O)O)c(=O)[nH]1 [PMEG] | – | – | 2 to 9.2
